For this series, the system named is Culex sp. mosquitos. The experiment in a line: Laboratory test of samples with and without surfactant against Culex sp. mosquitos. The class given is in vivo. As for the experimental part:
Various amounts of different surfactants were evaluated to determine possible impacts on efficacy. In one set of trials, different amounts of sulfoxaflor were tested with and without a surfactant (Pluronic L92 from BASF).

Setting [1] is: sulfoxaflor 0.5 wt.%, surfactant (Pluronic L92) 20 wt.%.
Setting [2] is: sulfoxaflor 0.5 wt.%, surfactant None.
[3] abbreviates: sulfoxaflor 1 wt.%, surfactant None.

Turning to `CC(c1ccc(C(F)(F)F)nc1)S(C)(=O)=NC#N` (centres unmarked) [Sulfoxaflor, sulfoxaflor], under setting [1], the 1-hour knockdown was found to be 2%, the 24 hour mortality stood at 64% and the 48 hour mortality turned out to be 92%. In addition, under setting [2], the 1-hour knockdown is on record as 0%, the 24 hour mortality is on record as 27%, the 48 hour mortality is reported as 76% and the 72 hour mortality was 86%. Under setting [3], the 1-hour knockdown was found to be 18%, the 24 hour mortality amounted to 62%, the 48 hour mortality came to 94% and the 72 hour mortality was determined as 98%.
